Test results reported in ChEMBL document CHEMBL5325495, “Synthesis and anti-cancer potential of potent peripheral MAOA inhibitors designed to limit blood:brain penetration” (Bioorg Med Chem, 2023).

Legend:
[1] = target: T1, Amine oxidase [flavin-containing] A (Homo sapiens, UniProt P21397); test: Inhibition of recombinant human MAO-A expressed in baculovirus infected BTI insect cells
T1 sequence (P21397 whole entry): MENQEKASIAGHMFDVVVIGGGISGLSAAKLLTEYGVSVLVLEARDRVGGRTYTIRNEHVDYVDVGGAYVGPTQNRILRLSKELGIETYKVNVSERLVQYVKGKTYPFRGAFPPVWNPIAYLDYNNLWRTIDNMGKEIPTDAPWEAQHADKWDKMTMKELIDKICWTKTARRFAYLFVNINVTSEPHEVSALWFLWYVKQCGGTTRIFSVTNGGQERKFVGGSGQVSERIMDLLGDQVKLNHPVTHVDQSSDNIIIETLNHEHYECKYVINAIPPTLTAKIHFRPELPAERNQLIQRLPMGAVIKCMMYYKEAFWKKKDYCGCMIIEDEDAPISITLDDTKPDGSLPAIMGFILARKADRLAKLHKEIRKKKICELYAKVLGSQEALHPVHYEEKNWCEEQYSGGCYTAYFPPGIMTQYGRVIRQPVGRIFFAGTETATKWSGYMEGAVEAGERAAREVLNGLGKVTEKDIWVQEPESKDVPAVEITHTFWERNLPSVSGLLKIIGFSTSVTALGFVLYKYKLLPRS

[2] = target: T2, Amine oxidase [flavin-containing] B (Homo sapiens, UniProt P27338); test: Inhibition of recombinant human MAO-B expressed in baculovirus infected BTI insect cells; format: cell-based
T2 sequence (P27338 whole entry): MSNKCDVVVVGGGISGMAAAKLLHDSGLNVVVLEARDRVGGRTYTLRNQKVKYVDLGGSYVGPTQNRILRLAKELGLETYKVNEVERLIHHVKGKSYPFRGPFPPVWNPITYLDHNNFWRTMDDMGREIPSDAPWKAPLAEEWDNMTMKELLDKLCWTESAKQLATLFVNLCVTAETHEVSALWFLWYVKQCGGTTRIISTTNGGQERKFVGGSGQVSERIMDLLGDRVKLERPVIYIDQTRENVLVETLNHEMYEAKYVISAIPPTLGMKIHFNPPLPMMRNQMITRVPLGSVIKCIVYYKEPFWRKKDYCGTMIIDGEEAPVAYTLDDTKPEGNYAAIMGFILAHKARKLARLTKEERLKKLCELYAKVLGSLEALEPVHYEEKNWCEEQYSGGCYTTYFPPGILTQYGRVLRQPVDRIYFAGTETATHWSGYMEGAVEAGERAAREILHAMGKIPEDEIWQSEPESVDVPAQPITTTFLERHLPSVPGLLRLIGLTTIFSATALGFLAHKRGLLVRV

[3] = tested on: LNCaP; test: Cytotoxicity against human LNCaP cells incubated for 3 days by Cell-Titer Glo assay; format: functional; settings: 72 h, time 3 day
[4] = tested on: LNCaP C4-2B; test: Cytotoxicity against human LNCaP C4-2B cells incubated for 3 days by Cell-Titer Glo assay; format: functional; settings: 72 h, time 3 day

| IC50 [1] [µM] | IC50 [2] [µM] | Compound | CC50 [3] [µM] | CC50 [4] [µM] |
| --- | --- | --- | --- | --- |
| 0.064 | 69.6 | C#CCN(C)CCCOc1cc(NS(C)(=O)=O)c(Cl)cc1Cl | 103 | 119 |
| 0.764 | > 500 | C#CCN(CCO)CCCOc1cc(N)c(Cl)cc1Cl | 55.8 | 43.9 |
|  |  | NNCCc1ccccc1 [PHENELZINE] | 121 | 157 |
| 0.0244 | 0.91 | C#CCN(C)CCCOc1cc(O)c(Cl)cc1Cl | 35.5 | 30.2 |
| 8.66 | 352 | C#CCN(C)CCCOc1cc(NC(C)=O)c(Cl)cc1Cl | 97.3 | 97 |
| 0.103 | 38 | C#CCN(C)CCCOc1cc(C#N)c(Cl)cc1Cl | 65.4 | 72.4 |
| 25.7 | > 500 | C#CCN(C)CCCOc1cc(NC(=O)c2cc[nH]n2)c(Cl)cc1Cl | 15.8 | 32.5 |
| 6.78 | 122 | C#CCN(C)CCCOc1cc(C)c(Cl)cc1Cl | 37 | 66 |
| 0.794 | > 500 | C#CCN(CCO)CCCOc1ccc(Cl)cc1Cl | 35.7 | 46.5 |
|  |  | C#CCN(C)CCCOc1ccc(Cl)cc1Cl [CLORGILINE] | 51.5 | 53.5 |
| 0.0715 | > 500 | C#CCN(C)C[C@H](O)COc1cc(N)c(Cl)cc1Cl | 78.9 | 73.7 |
| 0.0148 | > 500 | C#CCN(C)CCCOc1cc(N)c(Cl)cc1Cl | 31.1 | 31.6 |
| 6.6 | 25.3 | C#CCN(C)CCCOc1cc(NC=O)c(Cl)cc1Cl | 85.9 | 84 |
| 0.0715 | > 500 | C#CCN(C)C[C@@H](O)COc1cc(N)c(Cl)cc1Cl | 78.9 | 73.7 |
